Test results: patent US8367721B2, “Methods of treating an overweight or obese subject” (Zafgen, Inc., priority 2008, dated 2013)

Legend:
[1] = test system: diet-induced obese C57BL/6NTac mice; experiment: 7 day oral weight loss study in diet-induced obese mice (Example 5); assay type: in vivo; conditions: oral 1.0 mg/kg once a day for 7 days
Procedure: A weight loss study was conducted in obese mice. The mice in this study were not genetically obese, but prior to and during the study, obesity was induced by a high-fat diet. Twelve week-old C57BL/6NTac mice, maintained on a 60% fat diet prior to and during the study, were separated into seven groups, eight animals per group. Average body weight of the mice was approximately 47 g at the start of the study.
Each of six groups was orally administered 1.0 mg/kg of a compound ([…] compounds B. C, D, E, F and G as disclosed herein), in 10% gelucire in deoinised water. Each of these six groups was administered a different compound. One group was orally administered fumagillin at 1.0 mg/kg (group 201) in 10% gelucire in deoinised water, and one group was administered 10% gelucire in deoinised water (vehicle). Mice received administrations once a day for 7 days.
(Data analyzed by ANCOVA with body weight on Day 1 as covariate followed by multiple tests against vehicle group: *p<0.05; **p<0.01, ***p<0.001.)

[2] = test system: Thioredoxin-1 (TXN) in B16F10 cells; experiment: N-terminal chymotryptic fragments of TXN by LC/MS in fumagillin-treated B16F10 cells; assay type: cell-based
Procedure: B16F10 cells were treated with increasing concentrations of fumagillin. N-terminal chymotryptic fragments of TXN were measured by liquid chromatography/mass spectrometry (LC/MS). […] The EC50 of fumagillin to increase Met-TXN acetylated Met-TXN levels is <10 nM.

[3] = test system: C57BL/6 mice conditioned on a high-fat diet; experiment: 28 day oral gavage, fat and lean tissue change in high fat diet mice; assay type: in vivo; conditions: oral gavage 0.1 or 0.3 mg/kg for 28 days
Procedure: C57BL/6 mice were conditioned on a low-fat diet (LF), a high fat diet (HF), or a high-fat diet and treated with fumagillin (ZGN-201) administered by oral gavage at doses of 0.1 or 0.3 mg/kg for 28 days. […] To determine whether the weight loss resulted from loss of fat or loss of lean tissue, the percentage change in fat tissue and lean tissue was determined for LF mice, HF mice, HF mice treated with 0.1 mg/kg fumagillin, and HF mice treated with 0.3 mg/kg fumagillin.
Upon histological examination, the studies of treated obese mice show no effect on growth of new blood vessels in growing fat depots and no effect on blood vessel size or density when compared to animals in which weight loss has been induced by simple energy (food) restriction.

[4] = test system: TXN in Cos-1 and 293T cells; experiment: FLAG-tagged TXN expression (gel) in transfected Cos-1 and 293T cells; assay type: cell-based
Procedure: EC50 of fumagillin to increase TXN levels is <10 nM.

[5] = test system: High fat diet-fed C57BL/6 mice; experiment: 14 day body weight and food intake study in high fat diet-fed mice; assay type: in vivo
Procedure: High fat diet-fed C57BL/6 mice were treated with 1 mg/kg of the MetAP2 inhibitor fumagillin (ZGN-201, squares) or vehicle (diamonds) for 14 days (FIG. 10). Body weights (left panel) were determined daily, while food intake (right panel) was assessed every other day by measuring the food consumed by each cage of three mice over the two day period. Data shown in FIG. 10 are means±SEM, n=9 animals. […] First, during the initial two to three days of treatment, no overt changes in food intake or body weight are observed. During this time period key changes in MetAP2 substrates occur, including glyceraldehyde-3-phosphate dehydrogenase and thioredoxin (data not shown). Second, the animals enter a period of rapid weight loss that proceeds until essentially all excess fat deposits are consumed. During this second period, fat oxidation is enhanced and food intake is inhibited.
Weight loss following treatment with therapeutically relevant doses of MetAP2 inhibitors stops once animals attain a normal body composition. […] This third phase can be maintained indefinitely provided the drug is continued (see FIG. 10), or presumably can be maintained in practice through other complementary pharmacologic, dietary, or lifestyle interventions.

[6] = test system: C57BL/6 mice conditioned on a high fat diet; experiment: Oral gavage for 10 days in high fat diet mice; assay type: in vivo; conditions: oral gavage 0.3 or 3 mg/kg daily for 10 days
Excerpt: (§1) Oral administration of the MetAP2 inhibitor fumagillin causes an increase in circulating ketone bodies, as measured by concentration of beta hydroxybutyrate, which indicates an increase in the breakdown of stored fat.

[7] = test system: C57BL/6 mice conditioned on a high fat diet; experiment: Diet admixture for 250 days in high fat diet mice; assay type: in vivo
Procedure: as §1
In addition to showing an increase in beta hydroxybutyrate concentration, C57BL/6 mice conditioned on a high fat diet and treated with fumagillin (ZGN-201) as a diet admixture (1 mg/kg daily for 250 days) also experienced a reduction in body fat by approximately 40 percent (FIG. 6). Once attaining the maximum weight reduction, mice treated daily with 1 mg/kg fumagillin maintained a weight that was 25% less than that of age-matched mice maintained on normal mouse chow diet (lean mice, FIG. 6) for the duration of the experiment.
Adipose tissue in mice fed a high-fat diet show distinctive crown-like structures not seen in lean mice. These crown-like structures were also absent from the adipose tissue of fumagillin-treated mice.

[8] = diet admixture 1 mg/kg daily for 250 days

## CO[C@@H]1[C@H](OC(=O)N[C@@H](C(N)=O)C(C)C)CC[C@]2(CO2)[C@H]1[C@@]1(C)O[C@@H]1CC=C(C)C [B]
[1]
  body weight change over the course of the 8 days: lost weight

## CO[C@@H]1[C@H](OC(=O)NCCC2CCCN2C)CC[C@]2(CO2)[C@H]1[C@@]1(C)O[C@@H]1CC=C(C)C (stereo partly drawn) [C]
[1]
  body weight change over the course of the 8 days: lost weight

## CO[C@@H]1[C@H](OC(=O)N[C@@H](C(=O)NCCN2CCCC2)C(C)C)CC[C@]2(CO2)[C@H]1[C@@]1(C)O[C@@H]1CC=C(C)C [E]
[1]
  body weight change over the course of the 8 days: lost weight

## CO[C@@H]1[C@H](OC(=O)/C=C/C=C/C=C/C=C/C(=O)O)CC[C@]2(CO2)[C@H]1[C@@]1(C)O[C@@H]1CC=C(C)C [fumagillin]
[2]; LC/MS
  accumulation of N-acetyl TXN(1-4): significant accumulation
  cellular level of TXN containing an intact N-terminal methionine [TXN(1-4)]: significantly increased
[2]; Mus musculus, B16-F10, read-out: EC50 to increase Met-TXN acetylated Met-TXN levels
  EC50: < 0.01 µM
[3]
  body weight: reduction in body weight down to the level of low fat fed mice
  reduction in fat: 40-50%
  reduction in lean tissue: 5-10%
[4]; Cos-1 and 293T cells transfected with FLAG-tagged TXN
  expression of TXN: significantly increased
[4]; gel, FIG. 4, read-out: EC50 to increase TXN levels
  EC50: < 0.01 µM
[5]; 1 mg/kg for 14 days, second phase
  food intake during period of rapid weight loss: inhibited
[5]; 1 mg/kg, third phase
  food intake after weight loss nadir: returns to normal levels
[6]
  beta hydroxybutyrate concentrations: increase
  free fatty acid concentration: without an increase
[1]
  body weight change over the course of the 8 days: lost the most weight
[7]; 1 mg/kg daily, after maximum weight reduction
  maintained weight less than that of age-matched lean mice on normal chow: 25%
[7]; 1 mg/kg, 250 days
  adipocyte size: more similar to that of age-matched lean mice
  crown-like structures in adipose tissue: absent
  fasted glucose and insulin levels, insulin-glucose product: more similar to that of age-matched lean mice
  retroperitoneal fat pad weight: more similar to that of age-matched lean mice
  size and appearance of epididymal fat, peri-renal fat and liver: more similar to that of age-matched lean mice
[7]; [8]
  hydroxybutyrate concentration at longer time points: Increased hydroxybutyrate concentration persisted
  reduction in body fat: approximately 40%
